As a reminder, the inhibition is the percentage by which the read-out fell short of the control. The term LD50 denotes the dose expected to kill half of the subjects tested.

Data set [1] deals with T1, Porcine pancreatic phospholipase A2 (Sus scrofa, UniProt P00592).
T1 construct: purchased Boehringer Mannheim·Yamanouchi K.K. 161454·122416
As to the kind of experiment: Phospholipase A2 inhibitory activity, method A (egg yolk lecithin substrate). It is filed as biochemical. The following applies: 1,000 ppm, 37°C for 30 minutes, read-out: % inhibition of PLA2 (1,000 ppm). The method in brief:
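Egg yolk lecithin dispersed with glycerine, Triton X-100 and CaCl2 in 50 mM Tris-HCl pH7.5 was hydrolysed by enzyme (20 ng/ml solution) with compound, 37°C, 30 min. Released free fatty acid measured by ACS-ACOD method at 540 nm; apparent enzyme level read from a standard curve to give percent inhibition.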

The subject of data set [2] is experimental acute pancreatitis model. As to the kind of experiment: Effects against acute pancreatitis (Test Example 8, closed duodenal loop method, lesion scores). In kind it is in vivo, Crj-CD male rats. The following applies: sodium salt, 6 hours after ventrotomy; for inhibition in vivo at 10 mg/kg: Rattus norvegicus, 10 mg/kg single intravenous injection. Put shortly: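 Closed duodenal loop pancreatitis in male Crj-CD rats (n=3) under halothane/nitrous oxide; sodium-salt compounds given i.v. into tail vein by continuous infusion or bolus, controls untreated. At 6 h, four pancreatic lesions scored 0-3; inhibition % of total and hemorrhagic scores calculated versus control.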

Data set [3] in a line: Acute toxicity, intravenous injection (LD50). It is filed as in vivo. The following applies: mouse, in vivo, iv, ddy male mice, sodium salt, mortality over one week. The method, then: Administration route: Intravenous injection
Using ddy male mice (body weight: 25 - 30 g), each test group consisted of 5 mice. A test compound was dissolved in the form of a sodium salt in a physiological saline or in a 5% glucose aqueous solution, and intravenously injected in an amount of 0.1 ml/10 g body weight. After the injection, the mortality rate was obtained over one week, and the median lethal dose LD50 (mg/kg) was determined.

Data set [4] has as its system increased vascular permeability induced by acetic acid. As to the kind of experiment: Inhibitory activity on increased vascular permeability induced by acetic acid (Rat Whittle method, method D). The following applies: amount of leaked dye. It is filed as in vivo, SD (Crj: CD) male rats. As for the experimental part: Using SD (Crj: CD) male rats, each test group consisted of from 3 to 5 rats. A test compound was mixed with Tween 80 [polyoxyethylenesorbitan monooleate (manufactured by Nacalai Tesque K.K.)], and distilled water was added thereto to obtain a 2% Tween 80 suspension, or it was dissolved in the form of a salt in water to obtain an aqueous solution. A test compound was orally administered, and one hour later, 0.7% acetic acid was intraperitonially injected to each rat in an amount of 0.05 ml/10 g, and at the same time, 2% brilliant blue was intravenously injected into the tail vein in an amount of 0.05 ml/20 g. Thirty minutes after the injection of brilliant blue, the cervical vertebrae were dislocated under anesthesia by chloroform, and the abdorminal cavity was washed with 10 ml of a physiological saline. The washing solution was subjected to centrifugal separation at 3,000 rpm for 10 minutes, and the amount of the dye in the supernatant was measured at 600 nm absorbance by Microplate ELISA Reader (Model 2550EIA Reader, manufactured by Bio-Rad Laboratories). The inhibition rate of the amount of leaked dye in the group to which a test compound was administered relative to the control group was obtained from the following formula, and the results are shown in Table 9. Inhibition rate (%) = (l -(C)/(D)) x 100 [formula] • C: Amount of leaked dye in the group to which a test compound was administered. • D: Amount of leaked dye in the control group.

[5] abbreviates: 20 mg/kg continuous intravenous injection.
[6] abbreviates: read-out: Inhibition rate of hemorrhagic lesions (%).
[7] abbreviates: read-out: Inhibition rate of pancreatitis lesions (%).

Structures can show the parent of a compound that is named as a salt. Where two headings read alike, the source gives them in different places.

T1 sequence (P00592 23-146): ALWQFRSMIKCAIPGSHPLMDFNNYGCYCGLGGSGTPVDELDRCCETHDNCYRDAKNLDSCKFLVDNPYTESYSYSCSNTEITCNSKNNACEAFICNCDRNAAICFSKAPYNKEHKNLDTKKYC

As to `CS(=O)(=O)Nc1ncc(C(F)(F)F)cc1NC(=O)c1ccccc1` [compound 43], in data set [1], the inhibition at 1000 ppm turned out to be 47%. Besides, in data set [2] (setting [5]), the “Inhibition rate of hemorrhagic lesions (%)” value is recorded as 81%. For the same compound, the LD50 at 168 h in data set [3] turned out to be 78 mg/kg.
In the case of `CS(=O)(=O)Nc1ncc(C(F)(F)F)cc1NC(=O)C(F)(F)C(F)(F)F` [compound 13], the inhibition at 1000 ppm in data set [1] came to 87%. Further, in data set [2] (23 mg/kg continuous intravenous injection), the “Inhibition rate of hemorrhagic lesions (%)” value stood at 100%. Besides, the 50% lethal dose (LD50) at 168 h in data set [3] is above 70 mg/kg.
As to `CS(=O)(=O)Nc1ncc(C(F)(F)F)cc1NC(=O)c1ccc(F)cc1` [Compound No. 10, N-(2-methylsulfonylamino-5-trifluoromethyl-3-pyridyl)-4-fluorobenzamide], the inhibition at 1000 ppm in data set [1] stood at 60%. The median lethal dose (LD50) at 168 h in data set [3] lay in the range of 50 to 100 mg/kg.
On to `CS(=O)(=O)Nc1ncc(C(F)(F)F)cc1NC(=O)c1cc2ccccc2s1` [compound 86], for which the inhibition in vivo at 10 mg/kg in data set [2] (setting [6]) was 87%; in data set [2] (setting [7]) it was 85%. In addition, the LD50 at 168 h in data set [3] is above 40 mg/kg. Further, the “Inhibition rate (%)” value in data set [4] (dose 50 mg/kg orally) is recorded as 37%.
`CCS(=O)(=O)Nc1ncc(C(F)(F)F)cc1NC(=O)C1CCCCC1` [Compound No. 47, N-(2-ethylsulfonylamino-5-trifluoromethyl-3-pyridyl)cyclohexanecarboxamide]: in data set [1], the inhibition at 1000 ppm came out at 75%. Besides, the “Inhibition rate of hemorrhagic lesions (%)” value in data set [2] (setting [5]) came to 68%. The 50% lethal dose (LD50) at 168 h in data set [3] was 58 mg/kg.
For the compound `CS(=O)(=O)Nc1ncc(C(F)(F)F)cc1NC(=O)C1CCCC1` [compound 45], the inhibition at 1000 ppm in data set [1] stood at 50%. In addition, the “Inhibition rate of hemorrhagic lesions (%)” value in data set [2] (25 mg/kg continuous intravenous injection) is 62%. Further, the median lethal dose (LD50) at 168 h in data set [3] is 98 mg/kg.
Turning to `CCS(=O)(=O)Nc1ncc(C(F)(F)F)cc1NC(=O)C1CCCC1` [compound 94], the inhibition in vivo at 10 mg/kg in data set [2] (setting [6]) and in data set [2] (setting [7]) was 11% each time. The “Inhibition rate (%)” value in data set [4] (dose 25 mg/kg orally) is on record as 45%.
As for `CCS(=O)(=O)Nc1ncc(C(F)(F)F)cc1NC(=O)C1CCCCC1` [Compound No. 251, sodium salt of N-(2-ethylsulfonylamino-5-trifluoromethyl-3-pyridyl)cyclohexanecarboxamide], the inhibition in vivo at 10 mg/kg in data set [2] (setting [6]) turned out to be 79%; in data set [2] (setting [7]), 80%. In data set [4] (dose 12.5 mg/kg orally), the “Inhibition rate (%)” value came out at 46%.
`CS(=O)(=O)Nc1ncc(C(F)(F)F)cc1NC(=O)c1ccc2c(c1)CCC2` [compound 87]: the inhibition in vivo at 10 mg/kg is 83% in data set [2] (setting [6]) and 87% in data set [2] (setting [7]). The LD50 at 168 h in data set [3] was found to be 75 mg/kg. In addition, the “Inhibition rate (%)” value in data set [4] (dose 12.5 mg/kg orally) is 47%.
On to `CS(=O)(=O)Nc1ncc(C(F)(F)F)cc1NC(=O)c1cccc(Cl)c1` [compound 79], for which the inhibition in vivo at 10 mg/kg was 23% in data set [2] (setting [6]) and 39% in data set [2] (setting [7]). Moreover, in data set [4] (dose 50 mg/kg orally), the “Inhibition rate (%)” value is given as 74%.
In the case of `C/C=C/C(=O)Nc1cc(C(F)(F)F)cnc1NS(=O)(=O)CC` [compound 93, N-(2-ethylsulfonylamino-5-trifluoromethyl-3-pyridyl)crotonamide], the inhibition in vivo at 10 mg/kg in data set [2] (setting [6]) and in data set [2] (setting [7]) was 70% each time. Further, the “Inhibition rate (%)” value in data set [4] (dose 25 mg/kg orally) is recorded as 54%.
With `Cc1cccc(C(=O)Nc2cc(C(F)(F)F)cnc2NS(C)(=O)=O)c1` [compound 78], the inhibition in vivo at 10 mg/kg in data set [2] (setting [6]) is 96%; in data set [2] (setting [7]) it was 91%. In addition, the LD50 at 168 h in data set [3] was above 60 mg/kg. Also, the “Inhibition rate (%)” value in data set [4] (dose 25 mg/kg orally) is listed as 40%.
